Experimental findings from the NIST ThermoML archive (doi:10.1021/acs.jced.8b00124) are described below.

Series [1] is described as follows: Molar enthalpy of transition or fusion. As to conditions: Crystal; DSC.
The conditions of series [2]: Crystal; DTA.

Numbers after ± are expanded uncertainties.

Regarding `Cc1cc(C)nc(Nc2ccccc2)n1` [2-anilino-4,6-dimethylpyrimidine], the “Molar enthalpy of transition or fusion” value in series [1] stood at 6.08 ± 0.263 kcal/mol. The Normal melting temperature in series [2] worked out at 96.14 ± 1.1 °C.
